According to patent US6015820A, “4-Aryl-thio-pyridin-2(1H)-ones, medicines containing them and their uses in the treatment of illnesses linked to HIV” (priority 1995, dated 2000):

Key:
HIV-1 LAI = test: anti-HIV-1 activity: replication of HIV-1 LAI on CEM-SS cells; format: cell-based; conditions: Table 2, HIV-1 LAI, CEM-SS cells; for IC50: Human immunodeficiency virus 1, 120 h, 5 days, read-out: IC50, anti-HIV-1 activity
Protocol: (§1) The CEM-SS and the HIV-1 resistant to Nevirapine (N119) carrying a point mutation at codon 181 of the IT, were supplied respectively by P. NARA and D. RICHMAN through the intermediary of the AIDS Research and Reference Reagent Program, Division of AIDS, NIAID, NIH (USA) (Catalogue references : No. 776 and No. 1392).
(§2) The virus production was measured by quantifying the activity of the inverse transcriptase associated with viral particles released into the culture supernatant. In short, cells were infected with 100 TCID50 for 30 minutes; after adsorption of the virus, unbound particles were removed by two washings and the cells were cultivated in the presence of different concentrations of the compounds tested for 5 days before determining the viral production. The concentration inhibiting 50% of the viral multiplication (IC50) came from the computer plot of the median effect of the dose effect results (Chou et al. Elsevier Science Publishers, Cambridge U.K. (1985), 19-28).

[1] = cytotoxicity on non-infected cells (MTT test); format: cell-based; conditions: human; Table 2; non-infected CEM-SS cells, MTT, 5 days
Protocol: (§3) In parallel experiments, the cytotoxicity of the molecules was measured on non-infected cells, after an incubation of 5 days in the presence of these molecules, by using a […] titration (MTT test) based on the ability of the mitochondrial dehydrogenases of the living cells to reduce 3-(4,5-dimethylthiazol-2-yl)-2,5-diphenyltetrazolium bromide in formazan (Mosmann et al. J. Immunol. Methods ([…]), 65, 55-63). The concentration cytotoxic at 50% (CC50) is the concentration at which the DO540 has been reduced to half and is calculated by using the program mentioned above.

CEM-SS cells = test: cytotoxicity on non-infected cells (MTT test); format: cell-based; conditions: Table 3; non-infected cells, MTT, 5 days
Protocol: as §3

[2] = tested on: HIV-1 resistant to Nevirapine (N119); test: microbe, parasite or virus in culture; format: cell-based; conditions: for IC50: Human immunodeficiency virus 1, CEM-SS, read-out: IC50, strain resistant to Nevirapine; for SI (selectivity index): Table 3, strain resistant to Nevirapine
Protocol: as §1, with “The effects of the compounds were evaluated on the replication of HIV-1 (see Table 2) on CEM-SS cells (cell lines of the lymphocytic lineage) strongly infected with HIV-1 LAI as described by Moog et al. (Antiviral Research (1994), 24, 275-288). The” for “The”
as §2

IT of recombinant HIV-1 = molecular target: T1, IT of recombinant HIV-1 (Human immunodeficiency virus type 1 group M subtype B, UniProt P03369); test: inhibition of the inverse transcriptase of recombinant HIV-1; format: biochemical
T1 construct: purify the IT enzyme of the recombinant HIV-1; made in house; host or cells: yeast cells transformed with the pAB 24/IT-4 vector
Protocol: Yeast cells transformed with the pAB 24/IT-4 vector were used to purify the IT enzyme of the recombinant HIV-1 as described by Sallafranque-Andreola et al. (1989 Eur. J. Biochem. 184, 364-374).
(§4) Incubation was carried out at 37° C. for 10 minutes in the presence of various matrix-primers.
(§5) a) Poly C-oligo dG: the reaction mixture contained a final volume of 0.05 ml, Tris-HCl 50 mM pH 8.0, MgCl2 5 mM, dithiothreitol 4 mM, 0.48 A260 /ml of poly C-oligo dG (5:1), 1.0 μCi of [^3 H]dGTP (28 Ci/mmole), dGTP 2 μM, KCl 80 mM, 1 μg of bovine serum albumin and IT 20-50 nM.
(§6) b) Poly A-oligo dT: the same conditions as in a), except that 0.48 A260 /ml of poly A-oligo dT (5:1), 0.5 μCi of [^3 H]dTTP (46 Ci/mmole), dTTP 20 μM were used.
(§7) The reactions were stopped by adding in the cold 1 ml of 10% trichloroacetic acid plus sodium pyrophosphate 0.1 M. The precipitates were filtered through nitrocellulose membranes, washed with 2% trichloroacetic acid, dried and counted in a PPO/POPOP/toluene scintillation mixture.
(§8) All the compounds were dissolved in dimethyl#sulphoxide (DMSO). The test samples were prepared in the presence of the same final concentration of DMSO. IC50 is the concentration required to inhibit the activity of the IT of the recombinant HIV-1 by 50%.

IT of HIV-2 = IT of HIV-2 (Human immunodeficiency virus type 2 (ISOLATE ROD), UniProt P04584); test: inhibition of the inverse transcriptase of HIV-2; format: biochemical; conditions: at concentrations at which the IT of HIV-1 was well inhibited (FIG. 9)
Protocol: The system for the expression of the IT of HIV-2 in E.coli (B. Muller et al. (1991 J. Biol. Chem. 266, 14708-14713) was provided by Dr. R. Goody. The IT of the HIV-2 was purified in the same way as the IT of the HIV-1.
as §4, §5, §6, §7, §8

[3] = molecular target: inverse transcriptase of HIV-1 (HIV-1 M:B_ARV2/SF2, UniProt P03369); test: enzymatic kinetic analysis of IT inhibition (Lineweaver-Burk); format: biochemical
Protocol: FIG. 12 is a double-reciprocal (Lineweaver-Burk) representation of the inhibition of the inverse transcriptase of HIV-1 by compound 7c with the poly C-oligo dG as a matrix-primer couple and dGPT as substrate.
FIG. 13 is a double-reciprocal representation, similar to […], in which the poly A-oligo dT is used as a matrix-primer couple and dTTP as substrate.
as §4, §5, §6, §7

IT of HIV-2, sequence (P04584 613-1171): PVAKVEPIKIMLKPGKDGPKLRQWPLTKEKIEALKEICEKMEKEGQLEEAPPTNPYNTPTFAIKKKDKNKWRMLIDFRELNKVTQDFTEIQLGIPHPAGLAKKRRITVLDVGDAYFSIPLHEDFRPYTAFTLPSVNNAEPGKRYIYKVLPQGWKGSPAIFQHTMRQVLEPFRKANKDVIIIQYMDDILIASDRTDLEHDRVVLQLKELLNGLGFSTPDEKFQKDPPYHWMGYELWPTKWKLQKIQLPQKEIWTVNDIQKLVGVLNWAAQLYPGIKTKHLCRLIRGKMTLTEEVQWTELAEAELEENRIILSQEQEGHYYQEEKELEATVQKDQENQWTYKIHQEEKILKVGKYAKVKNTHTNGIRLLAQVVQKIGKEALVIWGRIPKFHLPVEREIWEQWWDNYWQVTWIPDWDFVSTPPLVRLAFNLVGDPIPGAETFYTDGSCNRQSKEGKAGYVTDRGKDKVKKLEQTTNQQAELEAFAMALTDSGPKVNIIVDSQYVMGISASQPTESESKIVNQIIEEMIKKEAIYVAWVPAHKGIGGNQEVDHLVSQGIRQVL

SMILES	IC50 (HIV-1 LAI) [nM]	SI (selectivity index) (HIV-1 LAI)	CC50 at 120 h [1] [nM]	CC50 (CEM-SS cells) [nM]	IC50 [2] [nM]	SI (selectivity index) [2]	IC50 (IT of recombinant HIV-1) [nM]	effect on activity of the IT of HIV-1 in HIV-1/HIV-2 comparison (IT of recombinant HIV-1; FIG. 9)	IT inhibition according to matrix-primer couple (IT of recombinant HIV-1; poly C-oligo dG compared with poly A-oligo dT (FIG. 9))	effect on activity of the IT of HIV-2 (IT of HIV-2)	type of inhibition ([3]; as regards dGTP substrate, poly C-oligo dG matrix-primer (FIG. 12))	type of inhibition ([3]; poly A-oligo dT matrix-primer, dTTP substrate (FIG. 13))
CCc1c(C)nc(O)c(N)c1Sc1cc(C)cc(C)c1 [Compound 8c, 3-amino-5-ethyl-6-methyl-4-(3', 5'-dimethylphenyl)thio-pyridin-2(1H)-one]	14	> 714	> 10000	> 10000	2100	> 4	15	well inhibited	gave the same result	not affected	non-competitive	competitive
CCOC(=O)c1c(Sc2cc(C)cc(C)c2)c(CC)c(C)[nH]c1=O [Compound 15, 5-ethyl-6-methyl-3-carbethoxy-4-(3', 5'-dimethylphenyl)thio-pyridin-2(1H)-one]	3	> 3333	> 10000	> 10000	2200	> 4.5	600	–	–	–	–	–
